Data as given in paper PMC10281575, “PfCRT mutations conferring piperaquine resistance in falciparum malaria shape the kinetics of quinoline drug binding and transport” (PLOS Pathogens, 2023).
Where “and” joins values, the source holds several entries; their conditions need not be identical. Equal entries are not always repeated.

Target: T1, PfCRT^Dd2 (Plasmodium falciparum, UniProt Q8IBZ9, A220S/I356T/K76T/M74I/N326S/N75E/Q271E/R371I)
T1 sequence (Q8IBZ9 1-424 M74I/N75E/K76T/A220S/Q271E/N326S/I356T/R371I): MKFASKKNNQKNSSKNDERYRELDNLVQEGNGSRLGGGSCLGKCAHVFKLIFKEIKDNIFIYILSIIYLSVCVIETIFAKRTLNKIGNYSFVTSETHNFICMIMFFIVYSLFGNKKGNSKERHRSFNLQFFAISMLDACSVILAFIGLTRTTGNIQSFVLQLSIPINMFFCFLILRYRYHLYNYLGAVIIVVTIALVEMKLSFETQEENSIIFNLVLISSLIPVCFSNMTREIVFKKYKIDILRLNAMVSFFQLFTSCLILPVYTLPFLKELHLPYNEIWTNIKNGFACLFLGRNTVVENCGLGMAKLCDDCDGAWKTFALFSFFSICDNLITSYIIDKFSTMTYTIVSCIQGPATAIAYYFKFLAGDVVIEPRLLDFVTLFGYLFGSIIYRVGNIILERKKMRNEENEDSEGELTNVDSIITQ
Assay: Radiolabeled drug uptake (transport assay) in Xenopus laevis oocytes expressing PfCRT^Dd2
Assay type: cell-based
Parameters: expressed in transfected cells; host or cells: Xenopus laevis oocytes injected with in vitro transcribed RNA (pSP64T)
Procedure: The two kinetic parameters were derived by fitting the Michaelis-Menten equation to the kinetic data (Table 1).
Adult female X. laevis frogs (purchased from NASCO) were anesthetized by submersion in a solution of 0.3% (w/v) 3-amino benzoate methanesulfonate for 15 min. Sections of the ovary were surgically removed and placed in Ca^2+-free ND96 buffer supplemented with 0.1% collagenase D (w/v; Roche), 0.5% BSA (w/v) and 9 mM Na2HPO4 at 18°C for 14–16 h while gently shaking. The oocytes were then washed several times with ND96 buffer (5 mM HEPES, pH 7.5, 96 mM NaCl, 2 mM KCl, 1.8 mM CaCl2, 1 mM MgCl2), supplemented with […] gentamycin. Healthy-looking stage V-VI oocytes were manually selected and randomly grouped for injection. A codon-optimized coding sequence of PfCRT was subcloned into the pSP64T expression vector and subsequently linearized using the restriction endonuclease BamHI or SalI (New England Biolabs GmbH). RNA for injection was transcribed in vitro using the mMESSAGE mMACHINE SP6 Transcription kit (Ambion), diluted with nuclease-free water to a final concentration of 0.6 μg/μL and stored at -80°C. RNA was injected using precision-bore glass capillary tubes (3.5-inch glass capillaries; Drummond Scientific Co.), which were pulled on a vertical puller (P-87 Flaming/Brown micropipette puller, Sutter Instrument Co.) and graduated. The micropipettes were connected to a microinjector (Nanoject II Auto-Nanoliter Injector, Drummond Scientific Co.). Injection was conducted under stereomicroscopic control. 50 nL of nuclease-free water alone (control oocytes) or 50 nL of nuclease-free water containing 30 ng of RNA was injected per oocyte. Injected oocytes were kept for 72 h at 18°C in ND96 buffer with two daily buffer changes before being used for further experiments.
Drug transport assays were performed as previously described. Briefly, measurements of radiolabeled drug uptake were made over 1 h, unless otherwise specified. […] Where specified, one or more unlabeled drugs were also present at the indicated concentrations. […] The uptake assays were terminated by removing the oocytes from the reaction medium and washing them three times with 2 mL of ice-cold ND96 buffer. Each oocyte was transferred to a separate scintillation vial and lysed by the addition of 200 μL of a 5% SDS solution. The radioactivity in the sample was measured using a liquid scintillation analyser Tri-Carb 4910 TR (PerkinElmer). Water-injected oocytes were analyzed in parallel as a negative control. The buffer from each condition was measured in duplicate in parallel to each experiment to transform counts per minute into pmol of drug. Drug uptake attributable to PfCRT was determined by subtracting the background uptake from water-injected oocytes from that of PfCRT-expressing oocytes. In all cases, at least three independent experiments were performed on oocytes from different frogs, and for each condition in an experiment, measurements were made from 10 oocytes per treatment.

[1] = 50 μM PPQ, pH 6.0, total uptake, one value per biological replicate
[2] = 50 μM PPQ, pH 6.0, water-injected uptake subtracted, per replicate
[3] = 60 min, pH 6, per biological replicate

For `Clc1ccc2c(N3CCN(CCCN4CCN(c5ccnc6cc(Cl)ccc56)CC4)CC3)ccnc2c1` [PPQ, piperaquine], the “PfCRTDd2-mediated PPQ uptake at 10 µM PPQ” value (10 µM PPQ, single replicates) was 7.56 pmol oocyte-1 h-1 and 10.37 pmol oocyte-1 h-1 and 9.52 pmol oocyte-1 h-1, the “PfCRTDd2 PPQ uptake at 10 min” value [1] was 37.95 pmol oocyte-1 and 17.31 pmol oocyte-1 and 66.26 pmol oocyte-1 and 58.58 pmol oocyte-1 and 53.50 pmol oocyte-1 and 34.40 pmol oocyte-1 and the “PfCRTDd2 PPQ uptake at 30 min” value [1] was 69.53 pmol oocyte-1 and 108.95 pmol oocyte-1 and 50.26 pmol oocyte-1. For the same compound, the “PfCRTDd2 PPQ uptake at 60 min” value [1] was 123.14 pmol oocyte-1 and 94.65 pmol oocyte-1 and 103.77 pmol oocyte-1 and 219.78 pmol oocyte-1 and 140.45 pmol oocyte-1 and 145.26 pmol oocyte-1, the “PfCRTDd2 PPQ uptake at 90 min” value [1] was 183.05 pmol oocyte-1 and 183.06 pmol oocyte-1 and 147.41 pmol oocyte-1 and the “PfCRTDd2 PPQ uptake at 120 min” value [1] was 118.72 pmol oocyte-1 and 197.79 pmol oocyte-1 and 316.81 pmol oocyte-1 and 143.54 pmol oocyte-1 and 477.33 pmol oocyte-1. The “PfCRTDd2 PPQ uptake at 180 min” value [1] was 167.85 pmol oocyte-1 and 274.70 pmol oocyte-1 and 265.00 pmol oocyte-1, the “PfCRTDd2-mediated PPQ uptake at 10 min” value [2] was 17.92 pmol oocyte-1 and 6.16 pmol oocyte-1 and 19.07 pmol oocyte-1 and 16.58 pmol oocyte-1 and 10.50 pmol oocyte-1 and 10.36 pmol oocyte-1 and the “PfCRTDd2-mediated PPQ uptake at 30 min” value [2] was 29.61 pmol oocyte-1 and 27.31 pmol oocyte-1 and 14.01 pmol oocyte-1. The “PfCRTDd2-mediated PPQ uptake at 60 min” value [2] was 28.14 pmol oocyte-1 and 21.87 pmol oocyte-1 and 89.78 pmol oocyte-1 and 46.28 pmol oocyte-1 and 30.01 pmol oocyte-1 and 33.33 pmol oocyte-1, the “PfCRTDd2-mediated PPQ uptake at 90 min” value [2] was 41.43 pmol oocyte-1 and 74.11 pmol oocyte-1 and 31.93 pmol oocyte-1 and the “PfCRTDd2-mediated PPQ uptake at 120 min” value [2] was 30.25 pmol oocyte-1 and 19.89 pmol oocyte-1 and 85.94 pmol oocyte-1 and 81.35 pmol oocyte-1 and 70.65 pmol oocyte-1. For the same compound, the “PfCRTDd2-mediated PPQ uptake at 180 min” value [2] was 32.52 pmol oocyte-1 and 76.65 pmol oocyte-1 and 72.50 pmol oocyte-1, the “PfCRTDd2-mediated PPQ uptake at 50 µM PPQ” value (50 µM PPQ, single replicates) was 28.14 pmol oocyte-1 h-1 and 21.87 pmol oocyte-1 h-1 and 89.78 pmol oocyte-1 h-1 and 46.28 pmol oocyte-1 h-1 and 30.01 pmol oocyte-1 h-1 and 33.33 pmol oocyte-1 h-1 and 10.90 pmol oocyte-1 h-1 and the “PfCRTDd2-mediated PPQ uptake at 100 µM PPQ” value (100 µM PPQ, single replicates) was 59.97 pmol oocyte-1 h-1 and 45.22 pmol oocyte-1 h-1 and 64.52 pmol oocyte-1 h-1. For the same compound, the “PfCRTDd2-mediated PPQ uptake at 200 µM PPQ” value (200 µM PPQ, single replicates) was 87.13 pmol oocyte-1 h-1 and 109.05 pmol oocyte-1 h-1 and 57.84 pmol oocyte-1 h-1, the “PfCRTDd2-mediated PPQ uptake at 300 µM PPQ” value (300 µM PPQ, single replicates) was 90.42 pmol oocyte-1 h-1 and 110.91 pmol oocyte-1 h-1 and 77.44 pmol oocyte-1 h-1 and the “PfCRTDd2-mediated PPQ uptake at 400 µM PPQ” value (400 µM PPQ, single replicates) was 113.37 pmol oocyte-1 h-1 and 109.88 pmol oocyte-1 h-1 and 74.49 pmol oocyte-1 h-1. The “PfCRTDd2-mediated PPQ uptake at 500 µM PPQ” value (500 µM PPQ, single replicates) was 118.94 pmol oocyte-1 h-1 and 82.44 pmol oocyte-1 h-1 and 112.35 pmol oocyte-1 h-1, the “PfCRTDd2-mediated PPQ uptake at 10 µM PPQ” value [3] was 7.56 pmol oocyte-1 h-1 and 10.37 pmol oocyte-1 h-1 and 9.52 pmol oocyte-1 h-1 and the “PfCRTDd2-mediated PPQ uptake at 50 µM PPQ” value [3] was 33.33 pmol oocyte-1 h-1 and 10.9 pmol oocyte-1 h-1 and 28.14 pmol oocyte-1 h-1 and 21.87 pmol oocyte-1 h-1 and 89.78 pmol oocyte-1 h-1 and 46.28 pmol oocyte-1 h-1 and 30.01 pmol oocyte-1 h-1. The “PfCRTDd2-mediated PPQ uptake at 100 µM PPQ” value [3] was 59.97 pmol oocyte-1 h-1 and 45.22 pmol oocyte-1 h-1 and 64.52 pmol oocyte-1 h-1, the “PfCRTDd2-mediated PPQ uptake at 200 µM PPQ” value [3] was 87.13 pmol oocyte-1 h-1 and 109.05 pmol oocyte-1 h-1 and 57.84 pmol oocyte-1 h-1 and the “PfCRTDd2-mediated PPQ uptake at 300 µM PPQ” value [3] was 90.42 pmol oocyte-1 h-1 and 110.91 pmol oocyte-1 h-1 and 77.44 pmol oocyte-1 h-1. The “PfCRTDd2-mediated PPQ uptake at 400 µM PPQ” value [3] was 113.37 pmol oocyte-1 h-1 and 109.88 pmol oocyte-1 h-1 and 74.49 pmol oocyte-1 h-1, the “PfCRTDd2-mediated PPQ uptake at 500 µM PPQ” value [3] was 118.94 pmol oocyte-1 h-1 and 82.44 pmol oocyte-1 h-1 and 112.35 pmol oocyte-1 h-1 and the “Vmax, maximal velocity of drug transport” value (Michaelis-Menten fit, 10-500 μM drug, 60 min, pH 6) was 131 ± 3 pmol oocyte^-1 h^-1 and 259.88 pmol oocyte^-1 h^-1. It also gave a Km (Michaelis-Menten fit, 10-500 μM drug, 60 min, pH 6, read-out: KM, Michaelis constant) of 125 ± 9 µM.
